From ChEMBL document CHEMBL5034037, “Synthesis, Characterization, and Preclinical Evaluation of a Small-Molecule Prostate-Specific Membrane Antigen-Targeted Monomethyl Auristatin E Conjugate” (J Med Chem, 2021)
Calls of active or inactive are those of the source. The calls are words filed in the database; no cut-off is given here. Where a SMILES comes first, the peptide text is derived from it. [ ]: non-standard residue; d: D form. The star is where a group is joined. Dolaproine = CO[C@@H]([C@@H]1CCCN1)[C@@H](C)C(=O)O; Dil = CC[C@H](C)[C@H](NC)[C@@H](CC(=O)O)OC; X2 = C[C@@H](N*)[C@@H](O)c1ccccc1; NMeV = CN[C@H](C(=O)O)C(C)C

What was measured:
[1] = system: CWR22R; assay: Cytotoxicity against human 22Rv1 cells expressing PMSA measured using MTT assay; assay type: functional
[2] = Acute toxicity in iv dosed ICR male mouse assessed as maximum non-lethal dose; assay type: organism-based; conditions: in vivo
[3] = Acute toxicity in Wistar rat assessed as decrease in motor activity; conditions: in vivo
[4] = system: PC-3; assay: Induction of intracellular reactive oxygen species production in human PC-3 cells incubated for 1 hr measured at CC50 concentration by amperometric method; assay type: functional, cell-based
[5] = Acute toxicity in iv dosed Wistar male rat assessed as maximum non-lethal dose; assay type: organism-based; conditions: in vivo
[6] = system: PC-3; assay: Cytotoxicity against human PC-3 cells not expressing PMSA measured using MTT assay; assay type: functional
[7] = Acute toxicity in Wistar rat assessed as decrease in porphyrin release from nose mucous membrane at 30 mg/kg, iv; assay type: organism-based; conditions: in vivo
[8] = system: CWR22R; assay: Induction of intracellular reactive oxygen species production in human 22Rv1 cells incubated for 1 hr measured at CC50 concentration by amperometric method; assay type: functional, cell-based
[9] = Acute toxicity in Wistar rat assessed as decrease in porphyrin release from eye mucous membrane at 30 mg/kg, iv; assay type: organism-based; conditions: in vivo
[10] = Acute toxicity in Wistar rat assessed as damage in liver at 30 mg/kg, iv; assay type: organism-based; conditions: in vivo

| SMILES | CC50 [1] [nM] | Activity [2] [mg/kg] | Activity [3] | Activity [4] | Activity [5] [mg/kg] | CC50 [6] [nM] | Activity [7] | Activity [8] | Activity [9] | Activity [10] |
| --- | --- | --- | --- | --- | --- | --- | --- | --- | --- | --- |
| CC[C@H](C)[C@@H]([C@@H](CC(=O)N1CCC[C@H]1[C@H](OC)[C@@H](C)C(=O)N[C@H](C)[C@@H](O)c1ccccc1)OC)N(C)C(=O)[C@@H](NC(=O)[C@@H](NC)C(C)C)C(C)C (H-[NMeV]V[Dil][Dolaproine]-X2) | 1.44 | 0.1 | Toxic | Active | 0.29 | 0.97 | Toxic | Active | Toxic | Toxic |
| CC(=O)O[C@@]12CO[C@@H]1C[C@H](O)[C@@]1(C)C(=O)[C@H](O)C3=C(C)[C@@H](OC(=O)[C@H](O)[C@@H](NC(=O)OC(C)(C)C)c4ccccc4)C[C@@](O)([C@@H](OC(=O)c4ccccc4)[C@H]21)C3(C)C [DOCETAXEL ANHYDROUS] | 3.3 |  |  |  |  | 6.7 |  |  |  |  |
